Data on 20 molecules can be found in BindingDB's records for patent US10087191 (Jiangsu Hengrui Medicine, 2018).

As a reminder, the IC50 is the point on the concentration scale where inhibition reaches its midpoint.

SMILES strings stand for the structures.

The assay has as its target T1, Estrogen receptor (Homo sapiens, UniProt P03372).
T1 sequence (P03372 whole entry): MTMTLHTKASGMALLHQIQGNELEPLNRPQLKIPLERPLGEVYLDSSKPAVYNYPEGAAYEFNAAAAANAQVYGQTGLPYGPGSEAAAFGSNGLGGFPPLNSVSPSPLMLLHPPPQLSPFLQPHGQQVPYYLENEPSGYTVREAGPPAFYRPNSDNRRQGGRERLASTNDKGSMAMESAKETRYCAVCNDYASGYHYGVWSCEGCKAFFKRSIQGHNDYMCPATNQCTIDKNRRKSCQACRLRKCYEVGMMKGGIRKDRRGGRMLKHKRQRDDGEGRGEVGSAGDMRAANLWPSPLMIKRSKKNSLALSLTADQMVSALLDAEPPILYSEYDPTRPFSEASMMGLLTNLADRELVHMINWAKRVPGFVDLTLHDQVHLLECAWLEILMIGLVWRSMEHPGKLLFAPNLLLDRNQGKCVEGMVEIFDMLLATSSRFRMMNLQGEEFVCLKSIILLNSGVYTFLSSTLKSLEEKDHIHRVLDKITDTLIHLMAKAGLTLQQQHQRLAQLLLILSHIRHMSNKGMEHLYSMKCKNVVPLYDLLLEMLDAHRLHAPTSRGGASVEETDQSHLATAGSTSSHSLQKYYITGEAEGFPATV
Briefly: Biological Assay.
Regarding `CC1Cc2cc3c(cc2C(c2c(F)cc(/C=C/C(=O)O)cc2F)N1CC(C)(C)F)OCO3` (stereo not given) [US10087191, Example 1], the half-inhibitory concentration (IC50) was determined as 0.77 nM.
For the molecule `CC1Cc2c(oc3ccccc23)C(c2c(F)cc(/C=C/C(=O)O)cc2F)N1CC(C)(C)F` (stereo not given) [US10087191, Example 4], the IC50 stood at 0.73 nM.
Regarding `CC1Cc2sc3ccccc3c2C(c2c(F)cc(/C=C/C(=O)O)cc2F)N1CC(C)(C)F` (stereo not given) [US10087191, Example 6], inhibition was half-maximal at 4.9 nM (IC50).
The figure for `CC1Cc2cc(-c3cnn(C(F)F)c3)ccc2C(c2c(F)cc(/C=C/C(=O)O)cc2F)N1CC(C)(C)F` (stereo not given) [US10087191, Example 13] is 2.11 nM; for `CC1Cc2cc(-c3cnn(C)c3)c(F)cc2C(c2c(F)cc(/C=C/C(=O)O)cc2F)N1CC(C)(C)F` (stereo not given) [US10087191, Example 16] it is 1.36 nM.
`CCn1cc(-c2cc3c(cc2F)C(c2c(F)cc(/C=C/C(=O)O)cc2F)N(CC(C)(C)F)C(C)C3)cn1` (stereo not given) [US10087191, Example 17] yielded an IC50 of 1.17 nM.
In the case of `CCCn1cc(-c2ccc3c(c2)CC(C)N(CC(C)(C)F)C3c2c(F)cc(/C=C/C(=O)O)cc2F)cn1` (stereo not given) [US10087191, Example 18], the IC50 stood at 1.52 nM.
`CC1Cc2cc(-c3cnn(CCO)c3)ccc2C(c2c(F)cc(/C=C/C(=O)O)cc2F)N1CC(C)(C)F` (stereo not given) [US10087191, Example 23] gave an IC50 of 27.3 nM.
For `CC1Cc2cc(-c3ccc(N)nc3)ccc2C(c2c(F)cc(/C=C/C(=O)O)cc2F)N1CC(C)(C)F` (stereo not given) [US10087191, Example 27], half-maximal inhibition (IC50) required 19.8 nM.
The same measure for `CC1Cc2cc(-c3cccnc3)ccc2C(c2c(F)cc(/C=C/C(=O)O)cc2F)N1CC(C)(C)F` (stereo not given) [US10087191, Example 28]: 2.28 nM; for `CCc1nc(-c2ccc3c(c2)CC(C)N(CC(C)(C)F)C3c2c(F)cc(/C=C/C(=O)O)cc2F)no1` (stereo not given) [US10087191, Example 46]: 11.4 nM; for `Cc1ncc(-c2ccc3c(c2)CC(C)N(CC(C)(C)F)C3c2c(F)cc(/C=C/C(=O)O)cc2F)o1` (stereo not given) [US10087191, Example 49]: 3.4 nM.
`CC1Cc2cc(-c3nnn(C)n3)ccc2C(c2c(F)cc(/C=C/C(=O)O)cc2F)N1CC(C)(C)F` (stereo not given) [US10087191, Example 51]: half-maximal inhibition (IC50) was put at 7.43 nM.
Molecule `CC1Cc2cc(-c3ccc(-c4cnn(C)c4)nc3)ccc2C(c2c(F)cc(/C=C/C(=O)O)cc2F)N1CC(C)(C)F` (stereo not given) [US10087191, Example 61] showed an IC50 of 17.4 nM.
`CC1Cc2c(ccc3[nH]ncc23)C(c2c(F)cc(/C=C/C(=O)O)cc2F)N1CC(C)(C)F` (stereo not given) [US10087191, Example 70] displayed an IC50 of 0.77 nM.
With `CC1Cc2c(oc3cccc(F)c23)C(c2c(F)cc(/C=C/C(=O)O)cc2F)N1CC(C)(C)F` (stereo not given) [US10087191, Example 73], the IC50 came to 0.45 nM.
The figure for `CCn1cc(-c2ccc3oc4c(c3c2)CC(C)N(CC(C)(C)F)C4c2c(F)cc(/C=C/C(=O)O)cc2F)cn1` (stereo not given) [US10087191, Example 76] is 1.39 nM; for `CC1Cc2c(oc3c(F)cccc23)C(c2c(F)cc(/C=C/C(=O)O)cc2F)N1CC(C)(C)F` (stereo not given) [US10087191, Example 84] it is 2.97 nM; for `CC1Cc2c(oc3ccc(Br)cc23)C(c2c(F)cc(/C=C/C(=O)O)cc2F)N1CC(C)(C)F` (stereo not given) [US10087191, Example 87] it is 15 nM.
`CC(C)CN1C(C)Cc2c(ccc3[nH]ncc23)C1c1c(F)cc(/C=C/C(=O)O)cc1F` (stereo not given) [US10087191, Example 92] returned an IC50 of 0.43 nM.
